Measured values published in ChEMBL document CHEMBL1154382, “Preliminary SAR analysis of novel antiproliferative N(6),5'-bis-ureidoadenosine derivatives” (2009).
The source made the active and inactive calls.

Legend:
Type in all cases: functional
KM12 = assay: Antiproliferative activity against human KM12 cells at 10 uM assessed as cell growth inhibition relative to control
NCI-H522 = assay: Antiproliferative activity against human NCI-H522 cells at 10 uM assessed as cell growth inhibition relative to control
HOP-62 = assay: Antiproliferative activity against human HOP62 cells at 10 uM assessed as cell growth inhibition relative to control
SK-OV-3 = assay: Antiproliferative activity against human SKOV3 cells at 10 uM assessed as cell growth inhibition relative to control
MCF7 = assay: Antiproliferative activity against human MCF7 cells at 10 uM assessed as cell growth inhibition relative to control
COLO 205 = assay: Antiproliferative activity against human COLO205 cells at 10 uM assessed as cell growth inhibition relative to control
SF-539 = assay: Antiproliferative activity against human SF539 cells at 10 uM assessed as cell growth inhibition relative to control
NCI-H460 = assay: Antiproliferative activity against human NCI-H460 cells at 10 uM assessed as cell growth inhibition relative to control
UACC-257 = assay: Antiproliferative activity against human UACC257 cells at 10 uM assessed as cell growth inhibition relative to control
RXF 393 = assay: Antiproliferative activity against human RXF393 cells at 10 uM assessed as cell growth inhibition relative to control
SW-620 = assay: Antiproliferative activity against human SW620 cells at 10 uM assessed as cell growth inhibition relative to control
A498 = assay: Antiproliferative activity against human A498 cells at 10 uM assessed as cell growth inhibition relative to control
SF-268 = assay: Antiproliferative activity against human SF268 cells at 10 uM assessed as cell growth inhibition relative to control
MDA-MB-231 = assay: Antiproliferative activity against human MDA-MB-231 cells at 10 uM assessed as cell growth inhibition relative to control
HCT-15 = assay: Antiproliferative activity against human HCT15 cells at 10 uM assessed as cell growth inhibition relative to control
SK-MEL-5 = assay: Antiproliferative activity against human SK-MEL-5 cells at 10 uM assessed as cell growth inhibition relative to control
TK-10 = assay: Antiproliferative activity against human TK10 cells at 10 uM assessed as cell growth inhibition relative to control
CCRF-CEM = assay: Antiproliferative activity against human CCRF-CEM cells at 10 uM assessed as cell growth inhibition relative to control
Hs-578T = assay: Antiproliferative activity against human Hs 578T cells at 10 uM assessed as cell growth inhibition relative to control
HOP-92 = assay: Antiproliferative activity against human HOP92 cells at 10 uM assessed as cell growth inhibition relative to control
BT-549 = assay: Antiproliferative activity against human BT549 cells at 10 uM assessed as cell growth inhibition relative to control
ACHN = assay: Antiproliferative activity against human ACHN cells at 10 uM assessed as cell growth inhibition relative to control
SK-MEL-28 = assay: Antiproliferative activity against human SK-MEL-28 cells at 10 uM assessed as cell growth inhibition relative to control
HCT-116 = assay: Antiproliferative activity against human HCT116 cells at 10 uM assessed as cell growth inhibition relative to control
786-0 = assay: Antiproliferative activity against human 786-0 cells at 10 uM assessed as cell growth inhibition relative to control
NCI-H23 = assay: Antiproliferative activity against human NCI-H23 cells at 10 uM assessed as cell growth inhibition relative to control
T47D = assay: Antiproliferative activity against human T47D cells at 10 uM assessed as cell growth inhibition relative to control
OVCAR-3 = assay: Antiproliferative activity against human OVCAR-3 cells at 10 uM assessed as cell growth inhibition relative to control
MOLT-4 = assay: Antiproliferative activity against human MOLT4 cells at 10 uM assessed as cell growth inhibition relative to control
HT-29 = assay: Antiproliferative activity against human HT-29 cells at 10 uM assessed as cell growth inhibition relative to control
SK-MEL-2 = assay: Antiproliferative activity against human SK-MEL-2 cells at 10 uM assessed as cell growth inhibition relative to control
SN12C = assay: Antiproliferative activity against human SN12C cells at 10 uM assessed as cell growth inhibition relative to control
MDA-MB-468 = assay: Antiproliferative activity against human MDA-MB-468 cells at 10 uM assessed as cell growth inhibition relative to control
EKVX = assay: Antiproliferative activity against human EKVX cells at 10 uM assessed as cell growth inhibition relative to control
A549 = assay: Antiproliferative activity against human A549 cells at 10 uM assessed as cell growth inhibition relative to control
OVCAR-4 = assay: Antiproliferative activity against human OVCAR4 cells at 10 uM assessed as cell growth inhibition relative to control
Malme-3M = assay: Antiproliferative activity against human MALME-3M cells at 10 uM assessed as cell growth inhibition relative to control
SNB-75 = assay: Antiproliferative activity against human SNB75 cells at 10 uM assessed as cell growth inhibition relative to control
NCI-H226 = assay: Antiproliferative activity against human NCI-H226 cells at 10 uM assessed as cell growth inhibition relative to control
NCI-H322M = assay: Antiproliferative activity against human NCI-H322M cells at 10 uM assessed as cell growth inhibition relative to control
CAKI-1 = assay: Antiproliferative activity against human Caki1 cells at 10 uM assessed as cell growth inhibition relative to control
RPMI8266 = assay: Antiproliferative activity against human […] cells at 10 uM assessed as cell growth inhibition relative to control
HCC 2998 = assay: Antiproliferative activity against human HCC2998 cells at 10 uM assessed as cell growth inhibition relative to control
M14 = assay: Antiproliferative activity against human M14 cells at 10 uM assessed as cell growth inhibition relative to control
U-251 = assay: Antiproliferative activity against human U251 cells at 10 uM assessed as cell growth inhibition relative to control
UACC-62 = assay: Antiproliferative activity against human UACC62 cells at 10 uM assessed as cell growth inhibition relative to control
PC-3 = assay: Antiproliferative activity against human PC3 cells at 10 uM assessed as cell growth inhibition relative to control
SNB-19 = assay: Antiproliferative activity against human SNB19 cells at 10 uM assessed as cell growth inhibition relative to control
LOX IMVI = assay: Antiproliferative activity against human LOXIMVI cells at 10 uM assessed as cell growth inhibition relative to control
UO-31 = assay: Antiproliferative activity against human UO31 cells at 10 uM assessed as cell growth inhibition relative to control
OVCAR-5 = assay: Antiproliferative activity against human OVCAR5 cells at 10 uM assessed as cell growth inhibition relative to control
DU-145 = assay: Antiproliferative activity against human DU145 cells at 10 uM assessed as cell growth inhibition relative to control
IGROV-1 = assay: Antiproliferative activity against human IGROV1 cells at 10 uM assessed as cell growth inhibition relative to control
K562 = assay: Antiproliferative activity against human K562 cells at 10 uM assessed as cell growth inhibition relative to control
OVCAR-8 = assay: Antiproliferative activity against human OVCAR8 cells at 10 uM assessed as cell growth inhibition relative to control
SF-295 = assay: Antiproliferative activity against human SF295 cells at 10 uM assessed as cell growth inhibition relative to control
HL-60(TB) = assay: Antiproliferative activity against human HL-60(TB) cells at 10 uM assessed as cell growth inhibition relative to control

Measured: growth inhibition (GI)

CNC(=O)NC[C@H]1O[C@@H](n2cnc3c(NC(=O)Nc4ccccc4)ncnc32)[C@@H]2OC(C)(C)O[C@@H]21
inactive: KM12 | NCI-H522 | HOP-62 | SK-OV-3 | MCF7 | COLO 205 | SF-539 | NCI-H460 | UACC-257 | RXF 393 | SW-620 | A498 | SF-268 | MDA-MB-231 | HCT-15 | SK-MEL-5 | TK-10 | CCRF-CEM | Hs-578T | HOP-92 | BT-549 | ACHN | SK-MEL-28 | HCT-116 | 786-0 | NCI-H23 | T47D | OVCAR-3 | MOLT-4 | HT-29 | SK-MEL-2 | SN12C | MDA-MB-468 | EKVX | A549 | OVCAR-4 | Malme-3M | SNB-75 | NCI-H226 | NCI-H322M | CAKI-1 | RPMI8266 | HCC 2998 | M14 | U-251 | UACC-62 | PC-3 | SNB-19 | LOX IMVI | UO-31 | OVCAR-5 | DU-145 | IGROV-1 | K562 | OVCAR-8 | SF-295 | HL-60(TB)

[N-]=[N+]=NC[C@H]1O[C@@H](n2cnc3c(NC(=O)Nc4ccccc4)ncnc32)[C@@H]2OC(=O)C[C@@H]21
inactive: KM12 | NCI-H522 | HOP-62 | SK-OV-3 | MCF7 | COLO 205 | SF-539 | NCI-H460 | UACC-257 | RXF 393 | SW-620 | A498 | SF-268 | MDA-MB-231 | HCT-15 | SK-MEL-5 | TK-10 | CCRF-CEM | Hs-578T | HOP-92 | BT-549 | ACHN | SK-MEL-28 | HCT-116 | 786-0 | NCI-H23 | T47D | OVCAR-3 | MOLT-4 | HT-29 | SK-MEL-2 | SN12C | MDA-MB-468 | EKVX | A549 | OVCAR-4 | Malme-3M | SNB-75 | NCI-H226 | NCI-H322M | CAKI-1 | RPMI8266 | HCC 2998 | M14 | U-251 | UACC-62 | PC-3 | SNB-19 | LOX IMVI | UO-31 | OVCAR-5 | DU-145 | IGROV-1 | K562 | OVCAR-8 | SF-295 | HL-60(TB)
